The results in this text go back to PubChem BioAssay AID652063 (Molecular Libraries Program, Specialized Chemistry Center, …, 2013).

Activity calls are given as the source filed them. No rule for the calls is given here.

This test has as its system mouse cells, CHOP mRNA qRT-PCR. Briefly: Inhibitors of CHOP mRNA levels in mouse cells, qRT-PCR, medium throughput (AID 652063).
As to `Cc1ccc(NC(=O)c2cc3ccccc3oc2=O)cc1S(=O)(=O)N(C)C`, the IC50 is > 20 µM (inactive). In the case of `Cc1cc(C2=NNC(=NC3CC3)SC2)c(C)n1-c1ccccc1F`, the IC50 was 2.89 µM (inactive). The result for `CC(C)(C)c1ccc(C(=O)Nc2ccc(CC(=O)O)cc2)o1` reads > 20 µM (inactive); that for `Cc1nn(C(C)(C)C)c(C)c1/C=N/OC(=O)Nc1ccc(Cl)cc1`, 18.4 µM (inactive).

Turning to `Cc1ccc(NC(=O)O/N=C/c2c(C)nn(C(C)(C)C)c2C)cc1Cl`, the IC50 was 4.53 µM (inactive).

For the compound `CCOc1ccc(-c2nc(CSCC(=O)NCc3ccco3)c(C)o2)cc1`, the IC50 is 4.37 µM (inactive). For `C=CCn1c(C)cc(C2=NN=C(NCC)SC2)c1C`, the IC50 was 6.18 µM (inactive). For `Cc1cc(C2=NNC(=NC3CC3)SC2)c(C)n1-c1ccccc1` the value was 3.58 µM (inactive). For `CCN=C1NN=C(c2cc(C)n(Cc3ccco3)c2C)CS1` the value was 3.73 µM (inactive); for `Cc1cc(C(=O)COC(=O)c2ccccc2O)c(C)n1Cc1cccs1`, 6.12 µM (inactive). The result for `CC(C)(C)c1ccc(-c2noc(CCC(N)=O)n2)cc1` reads > 20 µM (inactive).
